Measured values reported in patent US7279161B2, “Factor IX/factor IXa activating antibodies and antibody derivatives” (Baxter Aktiengesellschaft, priority 1999, dated 2007).
Entries after “also recorded” stand apart in the source; their conditions may differ.

Legend:
FVIII inhibitor plasma = assay: aPTT based one stage clotting assay in FVIII inhibitor plasma; assay type: biochemical; conditions: inhibitor plasma 8.1 Bethesda Units per ml
Procedure: […] […] […] After a 4 minute incubation, the reaction was started by the addition of 100 μl CaCl2 (25 mM). To ensure equal conditions, the experiments employing FVIII deficient plasma and FVIII inhibitor plasma were done side by side.
To assay for the procoagulant activity of peptide A1/3 in FVIII inhibitor plasma the following experiment was carried out. We performed a standard aPTT based one stage clotting assay, but instead of FVIII deficient plasma we employed FVIII inhibitor plasma.

factor IXa = biological target: T1, factor IXa (Bos taurus, UniProt P00741); assay: Chromogenic FVIII assay (COATEST VIII:C/4) with the kit's FIXa/FX; assay type: biochemical, bovine; conditions: bovine FIXa and FX only; A1/3 24 μM
T1 construct: purchased Chromogenix COATEST VIII:C/4
T1 sequence (P00741 47-192 limits assumed): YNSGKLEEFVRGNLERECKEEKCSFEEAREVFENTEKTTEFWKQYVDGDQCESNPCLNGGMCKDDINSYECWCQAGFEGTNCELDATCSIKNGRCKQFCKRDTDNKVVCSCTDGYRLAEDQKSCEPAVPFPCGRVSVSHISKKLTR
T1 sequence (P00741 228-462 limits assumed): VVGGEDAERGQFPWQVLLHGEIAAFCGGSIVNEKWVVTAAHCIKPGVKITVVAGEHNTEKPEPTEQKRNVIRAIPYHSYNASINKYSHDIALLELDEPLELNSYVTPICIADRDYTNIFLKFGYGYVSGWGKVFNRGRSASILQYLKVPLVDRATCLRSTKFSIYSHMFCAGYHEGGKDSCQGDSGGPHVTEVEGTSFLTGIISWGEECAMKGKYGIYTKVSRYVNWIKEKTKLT
Procedure: In order to assay the FVIII-like activity of anti-FIXa antibodies secreted by hybridoma cells, the commercially available test-kit COATEST VIII:C/4® (Chromogenix) was employed. The assay was done essentially as described by the manufacturer with the following modifications:
To allow high throughput screening, the assay was downscaled to microtiter plate format. Briefly, 25 μl aliquots of hybridoma supernatants were transferred to microtiter plate (Costar, #3598) wells and warmed to 37° C. Chromogenic substrate (S-2222), synthetic thrombin inhibitor (I-2581), factor (F) IXa and FX were reconstituted in sterile water and FIXa/FX was mixed with phospholipids according to the supplier's protocol. Per reaction, 50 μl of the phospholipid/FIXa/FX solution were combined with 25 μl CaCl2 (25 mM) and 50 μl of the substrate/inhibitor cocktail. To start the reaction, 125 μl of the premix were added to the hybridoma supernatant in the microtiter plates and incubated at 37° C. Absorbency at 405 nm and 490 nm of the samples was read at various times (30 min to 12 h) against a reagent blank (MLW, cell culture medium instead of hybridoma supernatant) in a Labsystems iEMS Reader MF™ microtiter plate reader. FVIII-like activity of the samples was calculated by comparing the absorbency of the samples against the absorbency of a diluted FVIII reference standard (IMMUNO AG #5T4AR00) using GENESIS™ software.
Several anti-FIX/FIXa antibody producing hybridoma clones were subcloned up to four times and the resulting monoclonal hybridoma cell line used to produce monoclonal antibody containing supernatant. IgG isotype antibodies derived from these supernatants were purified over affinity columns and dialyzed against TBS (see above). IgM antibodies were used as unpurified supernatant fractions. […] Absorbance at 405 nm and 490 nm of the samples was read at various times (5 min to 6 h) against a reagent blank (cell culture medium instead of hybridoma supernatant) in a Labsystems iEMS Reader MF™ microtiter plate reader using GENESIS™ software. […]

RRREGGGYYVNWYFDRRR [A1/3]
average clotting time (FVIII inhibitor plasma; 1.25 μM, 2.2 nM FIXa): 91 s
clotting time (FVIII inhibitor plasma; 1.25 μM, 2.2 nM FIXa, duplicate 1): 91.3 s
clotting time (FVIII inhibitor plasma; 1.25 μM, 2.2 nM FIXa, duplicate 2): 91.4 s
average clotting time (FVIII inhibitor plasma; 1.25 μM, w/o FIXa): 104 s
clotting time (FVIII inhibitor plasma; 1.25 μM, w/o FIXa, duplicate 1): 104.5 s
clotting time (FVIII inhibitor plasma; 1.25 μM, w/o FIXa, duplicate 2): 104.3 s
average clotting time (FVIII inhibitor plasma; 2.5 μM, 2.2 nM FIXa): 90 s
clotting time (FVIII inhibitor plasma; 2.5 μM, 2.2 nM FIXa, duplicate 1): 90.2 s
clotting time (FVIII inhibitor plasma; 2.5 μM, 2.2 nM FIXa, duplicate 2): 90.5 s
average clotting time (FVIII inhibitor plasma; 2.5 μM, w/o FIXa): 106 s
clotting time (FVIII inhibitor plasma; 2.5 μM, w/o FIXa, duplicate 1): 106.1 s
clotting time (FVIII inhibitor plasma; 2.5 μM, w/o FIXa, duplicate 2): 105.3 s
average clotting time (FVIII inhibitor plasma; 5 μM, 2.2 nM FIXa): 82 s
clotting time (FVIII inhibitor plasma; 5 μM, 2.2 nM FIXa, duplicate 1): 81 s
clotting time (FVIII inhibitor plasma; 5 μM, 2.2 nM FIXa, duplicate 2): 82 s
average clotting time (FVIII inhibitor plasma; 5 μM, w/o FIXa): 101 s
clotting time (FVIII inhibitor plasma; 5 μM, w/o FIXa, duplicate 1): 101.5 s
clotting time (FVIII inhibitor plasma; 5 μM, w/o FIXa, duplicate 2): 101.1 s
average clotting time (FVIII inhibitor plasma; 7.5 μM, 2.2 nM FIXa): 70 s
clotting time (FVIII inhibitor plasma; 7.5 μM, 2.2 nM FIXa, duplicate 1): 68.8 s
clotting time (FVIII inhibitor plasma; 7.5 μM, 2.2 nM FIXa, duplicate 2): 70.9 s
average clotting time (FVIII inhibitor plasma; 7.5 μM, w/o FIXa): 93 s
clotting time (FVIII inhibitor plasma; 7.5 μM, w/o FIXa, duplicate 1): 93.7 s
clotting time (FVIII inhibitor plasma; 7.5 μM, w/o FIXa, duplicate 2): 92.7 s
average clotting time (FVIII inhibitor plasma; 10 μM, 2.2 nM FIXa): 62 s
clotting time (FVIII inhibitor plasma; 10 μM, 2.2 nM FIXa, duplicate 1): 61.3 s
clotting time (FVIII inhibitor plasma; 10 μM, 2.2 nM FIXa, duplicate 2): 61.8 s
average clotting time (FVIII inhibitor plasma; 10 μM, w/o FIXa): 88 s
clotting time (FVIII inhibitor plasma; 10 μM, w/o FIXa, duplicate 1): 88.4 s
clotting time (FVIII inhibitor plasma; 10 μM, w/o FIXa, duplicate 2): 87.9 s
average clotting time (FVIII inhibitor plasma; 12.5 μM, 2.2 nM FIXa): 61 s
clotting time (FVIII inhibitor plasma; 12.5 μM, 2.2 nM FIXa, duplicate 1): 61 s
clotting time (FVIII inhibitor plasma; 12.5 μM, 2.2 nM FIXa, duplicate 2): 60.2 s
average clotting time (FVIII inhibitor plasma; 12.5 μM, w/o FIXa): 86 s
clotting time (FVIII inhibitor plasma; 12.5 μM, w/o FIXa, duplicate 1): 85.8 s
clotting time (FVIII inhibitor plasma; 12.5 μM, w/o FIXa, duplicate 2): 85.3 s
chromogenic FVIII-like activity (FXa generation) without human FIXa (factor IXa): does not react with bovine FIXa and FX; also recorded: does not give rise to any FXa generation
